# Laboratory results: patent publication US10717720B2, “Modified compound of andrographolide” (Heilongjiang Zhenbaodao Pharmaceutical Co., Ltd., priority 2015, dated 2020)
# Where two headings read alike, the source gives them in different places.
# System: LPS-induced IL-6 release level from THP-1 cells
# Assay: Test of IL-6 release from THP-1 cells (LPS-induced, IL-6 in supernatant detected by CBA)
# Format: cell-based
# Settings: Homo sapiens, read-out: Inhibition rate @ 10 uM
# Experimental: Test of IL-6 Release from THP-1 Cells
# The inhibitory effect of the compound on LPS-induced IL-6 release level from THP-1 cells was evaluated by measuring the level of IL-6 in the cell culture supernatant.
# 4 ul was taken from each above solution and added to lml of culture solution to make 120 uM, 40 uM, 12 uM, 4 uM. 50 ul per well was taken and added to wells with cells to give final concentrations of 30 uM, 10 uM, 3 uM, and 1 uM, respectively. Dexamethasone was added as a positive drug into an individual cell well with a final concentration of 100 nM. • c) Cell stimulation
# The LPS 1 mg/ml solution was diluted to 800 ng/ml with the culture solution and added to the cell culture wells at 50 ul/well. • d) Cell incubation and detection
# The cell culture plate was placed in a 37° C. incubator, and the supernatant was collected after culturing for 24 hours. The level of IL-6 in the supernatant was detected by CBA.
# [1] = inflammatory factor IL-6 detected by CBA, compound 10 uM, LPS-stimulated THP-1 cells, supernatant after 24 hours
SMILES,inhibition at 10 µM [1],"inhibition at 10 µM (THP-1, 24 h)"
"C=C1CCC2[C@]3(C)CO[C@@H](C4CCCC4)O[C@@H]3CC[C@@]2(C)[C@@H]1CCOCCCN(C)C (stereo partly drawn) [Compound 281, 3-(2-((3R,4aR,6aS,7R,10bR)-3-cyclopentyl-6a,10b-dimethyl-8-dihydromethylenedecahydro-1H-naphtho[2,1-d][1,3]dioxin-7-yl)ethoxy)-N,N-dimethylpropan-1-amine]",30 to 60%,–
"C=C1CCC2[C@]3(C)CO[C@@H](C4CCCC4)O[C@@H]3CC[C@@]2(C)[C@@H]1CCOc1ccn(CC(=O)O)c(=O)c1 (stereo partly drawn) [Compound 428, 2-(4-(2-((3R,4aR,6aS,7R,10bR)-3-cyclopentyl-6a,10b-dimethyl-8-dihydromethylenedecahydro-1H-naphtho[2,1-d][1,3]dioxin-7-yl)ethoxy)-2-carbonylpyridin-1(2H)-yl)acetic acid]",–,30 to 60%
"C=C1CCC2[C@]3(C)CO[C@@H](C4CCCC4)O[C@@H]3CC[C@@]2(C)[C@@H]1CCN1CCC(N2CCCC2)CC1 (stereo partly drawn) [Compound 160, 1-(2-((3R,4aR,6aS,7R,10bR)-3-cyclopentyl-6a,10b-dimethyl-8-methylene-decahydro-1H-naphtho[2,1-d][1,3]dioxin-7-yl)ethyl)-4-(pyrrolidin-1-yl)piperidine]",> 60%,–
"C=C1CCC2[C@]3(C)CO[C@@H](C4CCCC4)O[C@@H]3CC[C@@]2(C)[C@@H]1CCOc1ccc(C(=O)O)cc1 (stereo partly drawn) [Compound 422, 4-(2-((3R,4aR,6aS,7R,10bR)-3-cyclopentyl-6a,10b-dimethyl-8-dihydromethylenedecahydro-1H-naphtho[2,1-d][1,3]dioxin-7-yl)ethoxy)benzoic acid]",30 to 60%,–
"C=C1CCC2[C@]3(C)CO[C@@H](C4CCCC4)O[C@@H]3CC[C@@]2(C)[C@@H]1CCN1CCC(N(CC)CC)CC1 (stereo partly drawn) [Compound 150, 1-(2-((4aR,6aS,7R,10bR)-3-cyclopentyl-6a,10b-dimethyl-8-methylene-decahydro-1H-naphtho[2,1-d][1,3]dioxin-7-yl)ethyl)-N,N-diethylpiperidin-4-amine]",30 to 60%,–
"C=C1CCC2[C@]3(C)CO[C@@H](C4CCCC4)O[C@@H]3CC[C@@]2(C)[C@@H]1CCN1CC[C@H](NC(C)=O)C1 (stereo partly drawn) [Compound 149, N-((3 S)-1-(2-((3R,4aR,6aS,7R,10bR)-3-cyclopentyl-6a,10b-dimethyl-8-methylenedecahydro-1H-naphtho[2,1-d][1,3]dioxain-7-yl)ethyl)pyrrolidin-3-yl)acetamide]",30 to 60%,–
C=C1CCC2[C@]3(C)CO[C@@H](C4CCCC4)O[C@@H]3CC[C@@]2(C)[C@@H]1CCOc1ccncc1N (some centres unmarked) [Compound 339],< 30%,–
"C=C1CCC2[C@]3(C)CO[C@@H](C4CCCC4)O[C@@H]3CC[C@@]2(C)[C@@H]1CCN1CCOCC1 (stereo partly drawn) [Compound 123, 4-(2-((3R,4aR,6aS,7R,10bR)-3-cyclopentyl-6a,10b-dimethyl-8-methylenedecahydro-1H-naphtho[2,1-d][1,3]dioxin-7-yl)ethyl)morpholine]",< 30%,–
"C=C1CCC2[C@]3(C)CO[C@@H](C4CCCC4)O[C@@H]3CC[C@@]2(C)[C@@H]1CCOc1cc(C#N)ccc1C(=O)O (stereo partly drawn) [Compound 445, 4-cyano-2-(2-((3R,4aR,6aS,7R,10bR)-3-cyclopentyl-6a,10b-dimethyl-8-dihydromethylenedecahydro-1H-naphtho[2,1-d][1,3]dioxin-7-yl)ethoxy)benzoic acid]",< 30%,–
"C=C1CCC2[C@]3(C)CO[C@@H](C4CCCC4)O[C@@H]3CC[C@@]2(C)[C@@H]1CCOc1cc(C)ccc1C(=O)O (stereo partly drawn) [Compound 447, 2-(2-((3R,4aR,6aS,7R,10bR)-3-cyclopentyl-6a,10b-dimethyl-8-dihydromethylenedecahydro-1H-naphtho[2,1-d][1,3]dioxin-7-yl)ethoxy)-4-methylbenzoic acid]",< 30%,–
"C=C1CCC2[C@]3(C)CO[C@@H](C4CCCC4)O[C@@H]3CC[C@@]2(C)[C@@H]1CCOCc1ccncc1 (stereo partly drawn) [Compound 351, 4-((2-((3R,4aR,6aS,7R,10bR)-3-cyclopentyl-6a,10b-dimethyl-8-dihydromethylenedecahydro-1H-naphtho[2,1-d][1,3]dioxin-7-yl)ethoxy)methyl)pyridine]",> 60%,–
C=C1CCC2[C@]3(C)CO[C@@H](C4CCCC4)O[C@@H]3CC[C@@]2(C)[C@@H]1CCN1CCC[C@@H]1C(=O)O (some centres unmarked) [Compound 450],> 60%,–
"C=C1CCC2[C@]3(C)CO[C@@H](C4CCCC4)O[C@@H]3CC[C@@]2(C)[C@@H]1CCOc1ccncc1C#N (stereo partly drawn) [Compound 349, 4-(2-((3R,4aR,6aS,7R,10bR)-3-cyclopentyl-6a,10b-dimethyl-8-dihydromethylenedecahydro-1H-naphtho[2,1-d][1,3]dioxin-7-yl)ethoxy)cyanopyridine]",> 60%,–
"C=C1CCC2[C@]3(C)CO[C@@H](C4CCCC4)O[C@@H]3CC[C@@]2(C)[C@@H]1CCOc1cc(Cl)ccc1C(=O)O (stereo partly drawn) [Compound 448, 4-chloro-2-(2-((3R,4aR,6aS,7R,10bR)-3-cyclopentyl-6a,10b-dimethyl-8-dihydromethylenedecahydro-1H-naphtho[2,1-d][1,3]dioxin-7-yl)ethoxy)benzoic acid]",–,< 30%
"C=C1CCC2[C@]3(C)CO[C@@H](C4CCCC4)O[C@@H]3CC[C@@]2(C)[C@@H]1CCOc1cnc(C(=O)O)nc1 (stereo partly drawn) [Compound 454, 5-(2-((3R,4aR,6aS,7R,10bR)-3-cyclopentyl-6a,10b-dimethyl-8-dihydromethylenedecahydro-1H-naphtho[2,1-d][1,3]dioxin-7-yl)ethoxy)pyrimidine-2-carboxylic acid]",30 to 60%,–
"C=C1CCC2[C@]3(C)CO[C@@H](c4ccc(F)c(F)c4)O[C@@H]3CC[C@@]2(C)[C@@H]1CCN1C(=O)CNC1=O (stereo partly drawn) [Compound 230, 3-(2-((3R,4aR,6aS,7R,10bR)-3-(3,4-difluorophenyl)-6a,10b-dimethyl-8-methylenedecahydro-1H-naphtho[2,1-d][1,3]dioxin-7-yl)ethyl)tetrahydroimidazole-2,4-dione]",> 60%,–
"C=C1CCC2[C@]3(C)CO[C@@H](C4CCCC4)O[C@@H]3CC[C@@]2(C)[C@@H]1CCOc1ccncc1F (stereo partly drawn) [Compound 344, 4-(2-((3R,4aR,6aS,7R,10bR)-3-cyclopentyl-6a,10b-dimethyl-8-dihydromethylenedecahydro-1H-naphtho[2,1-d][1,3]dioxin-7-yl)ethoxy)-3-fluoropyridine]",> 60%,–
"C=C1CCC2[C@]3(C)CO[C@@H](C4CCCC4)O[C@@H]3CC[C@@]2(C)[C@@H]1CCOc1ncccc1C(=O)O (stereo partly drawn) [Compound 436, 2-(2-((3R,4aR,6aS,7R,10bR)-3-cyclopentyl-6a,10b-dimethyl-8-dihydromethylenedecahydro-1H-naphtho[2,1-d][1,3]dioxin-7-yl)ethoxy)nicotinic acid]",< 30%,–
"C=C1CCC2[C@]3(C)CO[C@@H](C4CCCC4)O[C@@H]3CC[C@@]2(C)[C@@H]1CCOc1cscc1C(=O)O (stereo partly drawn) [Compound 453, 4-(2-((3R,4aR,6aS,7R,10bR)-3-cyclopentyl-6a,10b-dimethyl-8-dihydromethylenedecahydro-1H-naphtho[2,1-d][1,3]dioxin-7-yl)ethoxy)thiophene-3-carboxylic acid]",> 60%,–
"C=C1CCC2[C@]3(C)CO[C@@H](C4CCCC4)O[C@@H]3CC[C@@]2(C)[C@@H]1CCN1CCCC[C@@H]1C(=O)O (stereo partly drawn) [Compound 451, (2R)-1-(2-((3R,4aR,6aS,7R,10bR)-3-cyclopentyl-6a,10b-dimethyl-8-methylene-decahydro-1H-naphtho[2,1-d][1,3]dioxin-7-yl)ethyl)piperidine-2-carboxylic acid]",30 to 60%,–
